Assay results from USRE47493E1, “Substituted bicyclic dihydropyrimidinones and their use as inhibitors of neutrophil elastase activity” (Boehringer Ingelheim International GmbH, priority 2014, dated 2019).

Tests used:
Type in all cases: in vitro ADME
[1] = Assay for the Determination of Metabolic Stability with Human Hepatocytes; conditions: scaled with well stirred model
Experimental: Assay for the Determination of Metabolic Stability with Human Hepatocytes
The metabolic degradation of the test compound is assayed in a human hepatocyte suspension. Human hepatocytes (typically cryopreserved) are incubated in an appropriate buffer system (e.g. Dulbecco's modified eagle medium plus 3.5 μg glucagon/500 mL, 2.5 mg insulin/500 mL and 3.75 mg/500 mL hydrocortison) containing 5% species serum. Following a (typically) […] preincubation in an incubator (37° C., 10% CO2), 5 μl of test compound solution (80 μM; from 2 mM stock solution in DMSO diluted 1:25 with medium) are added into 395 μl hepatocyte suspension (cell density in the range 0.25-5*10^6 cells/mL, typically 1*10^6 cells/mL; final concentration of test compound 1 μM, final DMSO concentration […]). The cells are incubated for six hours (incubator, orbital shaker) and samples (25 μl) are taken at 0, 0.5, 1, 2, 4 and 6 hours. Samples are transferred into acetonitrile and pelleted by centrifugation (5 min). The supernatant is transferred to a new 96-deepwell plate, evaporated under nitrogen and resuspended. The decline of parent compound is analyzed by LC-MS/MS.
The intrinsic clearance CL_[…] is calculated as follows: CL_[…]=Dose/AUC=(C0/CD)/(AUD+clast/k)*1′000/60 (C0: initial concentration in the incubation [μM], CD: cell density of vital cells [10^6 cells/mL], AUD: area under the data [μM*h], clast: concentration of last data point [μM], k: slope of the regression line for parent decline [h^−1])
The calculated in vitro hepatic intrinsic clearance can be scaled up to the intrinsic in vivo hepatic clearance and used to predict hepatic in vivo blood clearance (CL) by the use of a is liver model (well stirred model): CL_[…]_INVIVO [ml/min/kg]=(CL_[…] [μL/min/10^6 cells]* hepatocellularity[10^6 cells/g liver]*liver factor[g/kg bodyweight])/1′000 CL[ml/min/kg]=CL_[…]_INVIVO [ml/min/kg]*hepatic blood flow [ml/min/kg]/(CL_[…]_INVIVO [ml/min/kg]+hepatic blood flow [ml/min/kg]) Qh[%]=CL[ml/min/kg]/hepatic blood flow[ml/min/kg]) (Hepatocellularity, human: 120*10^6 cells/g liver; lver factor, human: 25.7 g/kg bodyweight; blood flow, human: 21 ml/(min*kg))
The predicted human hepatic in vivo blood clearance (CL) of selected compounds in the metabolic stability assay described above are listed in Table 16.

[2] = Assay for the Determination of Metabolic Stability with Human Liver Microsomes; conditions: pH 7.6; pooled human liver microsomes, 37° C., NADPH; read-out: t1/2 INVITRO
Experimental: Assay for the Determination of Metabolic Stability with Human Liver Microsomes
The metabolic degradation of the test compound is assayed at 37° C. with pooled human liver microsomes. The final incubation volume of […] per time point contains TRIS buffer pH 7.6 (0.1 M), magnesium chloride (5 mM), microsomal protein (1 mg/ml) and the test compound at a final concentration of […]. Following a short preincubation period at 37° C., the reactions are initiated by addition of beta-nicotinamide adenine dinucleotide phosphate, reduced form (NADPH, 1 mM) and terminated by transfering an aliquot into acetonitrile after different time points. Additionally, the NADPH-independent degradation is monitored in incubations without NADPH, terminated at the last time point. The rol remaining test compound after NADPH independent incubation is reflected by the parameter c(control) (metabolic stability). The quenched incubations are pelleted by centrifugation (10′000 g, 5 min) An aliquot of the supernatant is assayed by LC-MS/MS for the amount of parent compound.
The half-life (t1/2 INVITRO) is determined by the slope of the semilogarithmic plot of the concentration-time profile. The intrinsic clearance (CL_[…]) is calculated by considering the amount of protein in the incubation: CL_[…][μl/min/mg protein]=(ln 2/(half-life [min]*protein content [mg/ml]))*1′000.
The half-life (t1/2 INVITRO) values of selected compounds in the metabolic stability assay described above are listed in Table 15.

[3] = Assay for Determination of Drug Transport Across Human CACO-2 Cells; conditions: human; for efflux ratio at 2 h, 10 nM: pH 7.2, Caco-2, PEBA/PEAB; for Papp A→B at 10 nM: Caco-2, apical-to-basal, read-out: PEAB; for Papp A→B at 10 nM / Papp B→A at 10 nM: pH 7.2, 37° C.; for Papp B→A at 10 nM: Caco-2, basal-to-apical, read-out: PEBA

Structure (SMILES) | CL (predicted human hepatic in vivo blood clearance) [1] [mL/min/kg] | half-life at 1 nM [2] [h] | efflux ratio at 2 h, 10 nM [3] | Papp A→B at 10 nM [3] [×10⁻⁶ cm/s] | Papp B→A at 10 nM [3] [×10⁻⁶ cm/s]
CS(=O)(=O)c1cc(C#N)ccc1[C@H]1NC(=O)N(c2cccc(C(F)(F)F)c2)C2=C1C(=O)CCC2 (single isomer, unassigned) [Example 18A] | 0 | > 2.17 | 4.2 | 20.9 | 88.2
CS(=O)(=O)c1cc(C#N)ccc1[C@H]1NC(=O)N(c2cccc(C(F)F)c2)C2=C1C(=O)CCC2 (single isomer, unassigned) [Example 19A] | 0 | > 2.17 | 6.7 | 11.4 | 76.7
CNC(=O)N1C(=O)N(c2cccc(C(F)(F)F)c2)C2=C(C(=O)CCC2)[C@H]1c1ccc(C#N)cc1S(C)(=O)=O (single isomer, unassigned) [Example 47A] | 0 | > 2.17 | 5.4 | 9.86 | 53.5

The remaining lines, values ahead:

CL (predicted human hepatic in vivo blood clearance) [1] [mL/min/kg] | half-life at 1 nM [2] [h] | efflux ratio at 2 h, 10 nM [3] | Papp A→B at 10 nM [3] [×10⁻⁶ cm/s] | Papp B→A at 10 nM [3] [×10⁻⁶ cm/s] | Structure (SMILES)
2 | > 2.17 | 2.4 | 26 | 61.7 | CCS(=O)(=O)c1cc(C#N)ccc1[C@H]1NC(=O)N(c2cccc(C(F)(F)F)c2)C2=C1C(=O)CCC2 (single isomer, unassigned) [Example 54A]
0 | > 2.17 | 3.2 | 30.3 | 96.1 | CC(C)(O)CNC(=O)N1C(=O)N(c2cccc(C(F)(F)F)c2)C2=C(C(=O)CCC2)C1c1ccc(C#N)cc1 (stereo not shown) [Example 70.9]
